# Measurements reported in patent US9474730B2, “Methods and compositions for use with K-ras mediated disorders” (Board of Regents of the University of Texas System, priority 2012, dated 2016).
# Counter-ions that a name gives are not always drawn.
# Columns and labels:
# [1] = target: T1, GFP-CTK (mGFP-tagged C-terminal region of K-ras) in MDCK cells (Homo sapiens, UniProt P01116); experiment: High throughput cell-based screen: plasma membrane localization of GFP-CTK; set-up: species or system canine; conditions: fendiline HCl 4 ug/ml, 48 h, MDCK
# T1 construct: hypervariable region of K-ras (amino acids 166-188) cloned onto the carboxy terminus of GFP; expressed in transfected cells
# T1 sequence (P01116 166-188 isoform P01116-2 limits assumed): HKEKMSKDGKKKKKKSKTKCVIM
# Experimental: FIG. 1: Illustrates results of a high throughput cell-based screening of chemical libraries: Madin-Darby Canine Kidney epithelial cells (MDCK) expressing monomeric green fluorescent protein (mGFP)-tagged C-terminal region of K- or H-ras (GFP-CTK and GFP-CTH) were seeded in 96 well plates and treated with drug libraries for 48 h. Cells were then fixed with paraformaldehyde and imaged by BD Pathway Imager in confocal mode; shown are representative images of cells treated with vehicle, […], and 10 μM FTI-276; wherein experimentation was performed in accordance with principles described herein;
# In accordance with some embodiments described herein, wild type MDCK cells or MDCK cells expressing monomeric green fluorescent protein (mGFP)-tagged C-terminal region of K-ras or H-ras (GFP-CTK and GFP-CTH respectively) were seeded in triplicate in 96 well plates (Matrical) at a density of 30,000 cells/well and incubated for 24 h at 37° C. Compounds were individually added to test cells at a concentration of 4 μg/mL (concentration of DMSO 1%) and incubated for a further 48 h.
# Cells were then fixed with 4% paraformaldehyde and stored in PBS at 4° C. until imaged. Plates were imaged using a BD Pathway High-Throughput Bioimager. Images were acquired by a 3×3 montage with 20× objective lens using GFP-confocal mode. […]
# [2] = test system: BHK cells expressing constitutively active CRaf (FLAG-C-Raf-DD-CAAX); experiment: Signaling in cells expressing constitutively active CRaf, Western blotting; assay type: cell-based, hamster; conditions: 6 μg/mL, 48 h, serum starved BHK cells
# Experimental: FIG. 6: Illustrates that fendiline HCl inhibition occurs at the level of Ras: Whole cell lysates from serum starved BHK cells expressing vector control, FLAG-C-Raf-DD-CAAX or Myc-B-Raf V600E treated with vehicle or fendiline HCl (6 μg/mL) for 48 h were analyzed by quantitative Western blotting. Representative Western blots of c-Raf, pMEK, pERK and Actin (loading control) are shown. Data is shown as mean±SEM from 3-4 independent experiments. Statistical significance was calculated using one way ANOVA and Student's T-test. (*=p<0.05), wherein experimentation was performed in accordance with principles described herein;
# Preparation of whole-cell lysates: cells were lysed in Buffer B (50 mM Tris [pH 7.5], 75 mM NaCl, 25 mM NaF, 5 mM MgCl2, 5 mM EGTA, 1 mM dithiothreitol, 100 μM NaVO4, 1% Nonidet P-40 plus protease inhibitors). Cellular fractionation: cells were incubated in Buffer A (10 mm Tris-HCl, pH 7.5, 25 mm NaF, 5 mm MgCl2, 1 mm EGTA, 1 mm dithiothreitol, 100 μm NaVO4 plus protease inhibitors) for 30 minutes on ice and lysed by passing through a 27 G needle 30 times. The post nuclear supernatant was centrifuged at 100,000 g for 30 minutes and the membrane pellet was resuspended in Buffer A containing 1% Triton X-100.
# Quantification of intensities was performed using FluorChemQ software.
smiles,measurement,setting,value
CC(NCCC(c1ccccc1)c1ccccc1)c1ccccc1 (centres unmarked) [fendiline HCl],localization of GFP-CTK,[1],specifically affected localization of GFP-CTK
same,signaling downstream of constitutively active CRaf,[2],had no effect on signaling downstream of constitutively active CRaf
